SMILES strings stand for the structures.

Chain of ROCK2 (O75116 whole entry): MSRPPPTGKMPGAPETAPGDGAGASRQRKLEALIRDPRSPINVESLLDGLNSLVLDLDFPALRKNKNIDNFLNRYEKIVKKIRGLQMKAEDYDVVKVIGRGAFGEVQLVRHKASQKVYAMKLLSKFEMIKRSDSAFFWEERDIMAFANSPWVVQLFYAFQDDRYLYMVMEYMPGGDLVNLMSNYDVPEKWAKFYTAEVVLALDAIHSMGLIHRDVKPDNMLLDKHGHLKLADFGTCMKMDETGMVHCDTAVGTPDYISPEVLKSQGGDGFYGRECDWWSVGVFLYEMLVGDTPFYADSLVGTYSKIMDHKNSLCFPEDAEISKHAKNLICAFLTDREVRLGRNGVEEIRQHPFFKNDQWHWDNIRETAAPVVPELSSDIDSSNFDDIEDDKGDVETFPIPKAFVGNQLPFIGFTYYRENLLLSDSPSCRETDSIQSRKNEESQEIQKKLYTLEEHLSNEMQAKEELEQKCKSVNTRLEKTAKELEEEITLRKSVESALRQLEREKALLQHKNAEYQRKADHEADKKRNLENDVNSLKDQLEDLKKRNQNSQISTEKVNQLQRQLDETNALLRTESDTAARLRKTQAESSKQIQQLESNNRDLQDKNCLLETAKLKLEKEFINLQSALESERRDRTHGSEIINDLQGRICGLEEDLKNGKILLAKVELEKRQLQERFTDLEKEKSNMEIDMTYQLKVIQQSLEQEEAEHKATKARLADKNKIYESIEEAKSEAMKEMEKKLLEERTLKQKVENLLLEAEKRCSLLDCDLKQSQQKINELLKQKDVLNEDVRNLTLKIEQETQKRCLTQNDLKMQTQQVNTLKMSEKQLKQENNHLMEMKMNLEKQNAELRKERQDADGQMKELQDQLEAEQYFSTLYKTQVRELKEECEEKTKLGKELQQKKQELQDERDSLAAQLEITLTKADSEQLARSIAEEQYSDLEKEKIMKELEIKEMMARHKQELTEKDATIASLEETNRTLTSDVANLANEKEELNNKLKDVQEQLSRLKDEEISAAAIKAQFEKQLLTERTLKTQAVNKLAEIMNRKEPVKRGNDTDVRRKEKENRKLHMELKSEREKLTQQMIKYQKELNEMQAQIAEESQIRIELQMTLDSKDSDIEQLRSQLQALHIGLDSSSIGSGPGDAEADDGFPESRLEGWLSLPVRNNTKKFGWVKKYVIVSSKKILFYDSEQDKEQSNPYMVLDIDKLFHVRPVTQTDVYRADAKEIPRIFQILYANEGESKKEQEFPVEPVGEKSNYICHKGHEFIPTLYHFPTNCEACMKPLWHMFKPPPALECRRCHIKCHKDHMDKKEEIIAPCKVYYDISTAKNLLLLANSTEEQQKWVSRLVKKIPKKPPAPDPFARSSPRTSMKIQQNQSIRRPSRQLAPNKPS

The target of the first experiment is ROCK1 (Homo sapiens (Human), UniProt Q13464). The experiment can be described thus: In vitro inhibitory activity against ROCK protein kinase (33P-ATP filter-binding), ROCK1. In kind it is biochemical. Particulars: 1 nM ROCK protein kinase, 20 μM Long S6 Kinase substrate peptide. The protocol: (§1) 1. In Vitro Evaluation of the Inhibitory Activity Against ROCK Protein Kinase
Chain of ROCK1 (Q13464 whole entry): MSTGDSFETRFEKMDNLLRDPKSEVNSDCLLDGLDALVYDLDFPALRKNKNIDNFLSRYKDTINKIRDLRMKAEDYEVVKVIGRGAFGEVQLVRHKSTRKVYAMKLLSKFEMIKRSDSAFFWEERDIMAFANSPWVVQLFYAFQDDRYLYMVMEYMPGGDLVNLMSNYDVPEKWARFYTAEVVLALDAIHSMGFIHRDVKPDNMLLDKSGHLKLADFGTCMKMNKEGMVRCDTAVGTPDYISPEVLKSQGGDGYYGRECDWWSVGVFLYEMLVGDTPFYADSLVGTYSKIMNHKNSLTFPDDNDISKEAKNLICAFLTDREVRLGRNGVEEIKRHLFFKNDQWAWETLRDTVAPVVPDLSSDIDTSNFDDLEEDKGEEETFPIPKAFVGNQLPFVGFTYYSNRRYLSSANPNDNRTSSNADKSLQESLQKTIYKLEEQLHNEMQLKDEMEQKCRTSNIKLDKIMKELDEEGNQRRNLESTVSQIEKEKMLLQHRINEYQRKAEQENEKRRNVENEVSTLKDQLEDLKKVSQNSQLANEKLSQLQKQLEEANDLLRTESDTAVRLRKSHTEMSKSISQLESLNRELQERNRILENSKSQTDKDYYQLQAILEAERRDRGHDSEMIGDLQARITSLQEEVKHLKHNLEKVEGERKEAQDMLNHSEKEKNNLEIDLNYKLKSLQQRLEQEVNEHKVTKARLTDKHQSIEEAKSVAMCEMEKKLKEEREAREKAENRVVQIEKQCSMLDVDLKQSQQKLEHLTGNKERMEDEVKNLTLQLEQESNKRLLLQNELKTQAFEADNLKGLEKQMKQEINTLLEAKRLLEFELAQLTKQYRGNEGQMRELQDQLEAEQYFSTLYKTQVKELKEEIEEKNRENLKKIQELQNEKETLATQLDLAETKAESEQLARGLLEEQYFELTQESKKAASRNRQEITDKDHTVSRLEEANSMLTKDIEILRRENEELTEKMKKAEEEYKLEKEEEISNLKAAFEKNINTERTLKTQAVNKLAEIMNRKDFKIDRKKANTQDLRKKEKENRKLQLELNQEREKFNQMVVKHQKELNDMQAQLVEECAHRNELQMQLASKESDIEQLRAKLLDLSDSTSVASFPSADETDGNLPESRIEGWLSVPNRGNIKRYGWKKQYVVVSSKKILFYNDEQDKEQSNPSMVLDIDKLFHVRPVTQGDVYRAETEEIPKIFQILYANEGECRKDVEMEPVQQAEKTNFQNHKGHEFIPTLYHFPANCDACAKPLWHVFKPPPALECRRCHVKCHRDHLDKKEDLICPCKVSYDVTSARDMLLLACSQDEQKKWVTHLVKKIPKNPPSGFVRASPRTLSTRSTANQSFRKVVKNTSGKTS
(§2) Experimental purpose: to detect the inhibitory IC50 value of the compound against ROCK protein kinase.
(§3) Assay buffer solution: 20 mM 4-hydroxyethylpiperazine ethanesulfonic acid (pH 7.5), 10 mM magnesium chloride, 1 mM ethylene glycol-bis-(2-aminoethyl)tetraacetic acid, 0.02% polyethylene glycol monododecyl ether, 0.02 mg/mL bovine serum albumin, 0.1 mM sodium vanadate, 2 mM dithiothreitol, 1% DMSO.
(§4) The freshly prepared buffer solution was added to ROCK protein kinase substrate (Long S6 Kinase substrate peptide), at a concentration of 20 μM, then 1 nM ROCK protein kinase was added thereto and stirred evenly. Echo550 was used to add a series of DMSO dilutions containing the test compound (starting from 10 μM, serially diluted by 3 times), the solution was pre-incubated at room temperature for 20 minutes, then ^33P-ATP (radiation intensity 10 μCi/μL) was added to initiate the reaction, and the reaction was performed at room temperature for two hours. Then the solution was filtered by P81 ion exchange paper (Whatman #3698-915) and washed with 0.75% phosphoric acid. The radiation intensity was determined by Filter-Binding method.
(§5) The protein kinase inhibitory activity of the compound was expressed as the remaining protein kinase activity relative to the blank substrate (simply DMSO). Prism software package (GraphPad Software, San Diego Calif., USA) was used to calculate IC50 value and the curve.
The term IC50 denotes the point on the concentration scale where inhibition reaches its midpoint. Read a low IC50 as higher potency. For `COc1cccc(C(CCO)NC(=O)c2ccnc(-c3ccc4[nH]ncc4c3)c2)c1` (stereo not drawn) [Compound 1], the IC50 is 1640 nM.
Compound `COc1cccc(C(CCO)NC(=O)c2cccc(-c3ccc4[nH]ncc4c3)c2)c1` (stereo not drawn) [Compound 2] displayed an IC50 of 79 nM. Compared with the last compound, the IC50 is about 21-fold lower.
Same read-out and setting: the value for `COc1cccc(C(CCO)NC(=O)c2cncc(-c3ccc4[nH]ncc4c3)c2)c1` (stereo not drawn) [Compound 3] was 765 nM; that for `COc1cccc(C(CCO)NC(=O)c2cc(-c3ccc4[nH]ncc4c3)ccn2)c1` (stereo not drawn) [Compound 4] was 288 nM.
The same measure, in the same setting: the value for `COc1cccc(C(CO)NC(=O)c2cccc(-c3ccc4[nH]ncc4c3)c2)c1` (stereo not drawn) [Compound 5] was 33 nM; that for `O=C(NC(CCO)c1cccc(F)c1)c1cccc(-c2ccc3[nH]ncc3c2)c1` (stereo not drawn) [Compound 6] was 63 nM; that for `COc1cccc(C(CCN)NC(=O)c2cccc(-c3ccc4[nH]ncc4c3)c2)c1` (stereo not drawn) [Compound 7] was 24 nM.
On the same count and under the same terms, the value for `COc1cccc(C(CCN(C)C)NC(=O)c2cccc(-c3ccc4[nH]ncc4c3)c2)c1` (stereo not drawn) [Compound 8] was 166 nM.
Compound `COc1cccc(C(CN)NC(=O)c2cccc(-c3ccc4[nH]ncc4c3)c2)c1` (stereo not drawn) [Compound 9] returned an IC50 of 25 nM. Against the preceding compound, the IC50 is about 6.6-fold lower.
In turn, `COc1cccc(C(CN(C)C)NC(=O)c2cccc(-c3ccc4[nH]ncc4c3)c2)c1` (stereo not drawn) [Compound 10] came in with an IC50 of 79 nM. This IC50 lies about 3.2-fold higher than the previous one.
The same measure, in the same setting: the value for `COc1cccc(C(CO)NC(=O)c2ccc(F)c(-c3ccc4[nH]ncc4c3)c2)c1` (stereo not drawn) [Compound 11] was 79 nM.
On the same count and under the same terms, under `COc1cccc(C(CO)NC(=O)c2cc(F)cc(-c3ccc4[nH]ncc4c3)c2)c1` (stereo not drawn) [Compound 12] stands 257 nM.
Still for that read-out and setting: the value for `O=C(NC(CCO)c1cccc(Cl)c1)c1cccc(-c2ccc3[nH]ncc3c2)c1` (stereo not drawn) [Compound 13] was 139 nM.
`COc1cccc(C(CN2CCCC2)NC(=O)c2cccc(-c3ccc4[nH]ncc4c3)c2)c1` (stereo not drawn) [Compound 14]: the 50% inhibitory concentration (IC50) stood at 103 nM. The IC50 values of the last two compounds are within 1.5-fold of each other.
Same read-out and setting: the value for `COc1cccc(C(CO)NC(=O)c2cc(-c3ccc4[nH]ncc4c3)ccc2F)c1` (stereo not drawn) [Compound 15] was 278 nM; that for `O=C(NC(CO)c1cc(F)ccc1F)c1cccc(-c2ccc3[nH]ncc3c2)c1` (stereo not drawn) [Compound 16] was 259 nM.
The compound `O=C(NC(CO)c1cccc(F)c1F)c1cccc(-c2ccc3[nH]ncc3c2)c1` (stereo not drawn) [Compound 19] gave an IC50 of 735 nM.
Compound `O=C(NC(CCO)c1ccccc1F)c1cccc(-c2ccc3[nH]ncc3c2)c1` (stereo not drawn) [Compound 20] displayed an IC50 of 304 nM. This IC50 lies about 2.4-fold lower than the previous one.
Same read-out and setting: under `O=C(NC(CO)c1cccc(F)c1)c1cccc(-c2ccc3[nH]ncc3c2)c1` (stereo not drawn) [Compound 22] stands 52 nM; under `NCC(NC(=O)c1cccc(-c2ccc3[nH]ncc3c2)c1)c1cccc(F)c1` (stereo not drawn) [Compound 23], 29 nM; under `O=C(NC(CN1CCCC1)c1cccc(F)c1)c1cccc(-c2ccc3[nH]ncc3c2)c1` (stereo not drawn) [Compound 24], 126 nM.
With `COc1cccc(C(CO)NC(=O)c2cccc(-c3ccc4[nH]nc(N)c4c3)c2)c1` (stereo not drawn) [Compound 27], the IC50 stood at 407 nM. This IC50 is about 3.2-fold higher than that of the compound before.
On to `COc1cccc(C(CN)NC(=O)c2cccc(-c3ccc4[nH]nc(F)c4c3)c2)c1` (stereo not drawn) [Compound 28], for which the half-inhibitory concentration (IC50) was determined as 43 nM.
Still for that read-out and setting: the value for `COc1cccc(C(CN)NC(=O)c2cccc(-c3ccc4[nH]nc(N)c4c3)c2)c1` (stereo not drawn) [Compound 29] was 65 nM.
`COc1cccc(C(CN)NC(=O)c2cccc(-c3ccc4[nH]nc(C)c4c3)c2)c1` (stereo not drawn) [Compound 30] showed an IC50 of 43 nM.
The same measure, in the same setting: under `COCCC(NC(=O)c1cccc(-c2ccc3[nH]ncc3c2)c1)c1cccc(OC)c1` (stereo not drawn) [Compound 31] stands 223 nM; under `COc1cccc(C(CN2CCNCC2)NC(=O)c2cccc(-c3ccc4[nH]ncc4c3)c2)c1` (stereo not drawn) [Compound 32], 343 nM.

For another experiment, the target named is ROCK2 (Homo sapiens (Human), UniProt O75116). The experiment can be described thus: In vitro inhibitory activity against ROCK protein kinase (33P-ATP filter-binding), ROCK2. In kind it is biochemical. The conditions noted are these: 1 nM ROCK protein kinase, 20 μM Long S6 Kinase substrate peptide. As to the method:
as §1, §2, §3, §4, §5
For the compound `COc1cccc(C(CCO)NC(=O)c2ccnc(-c3ccc4[nH]ncc4c3)c2)c1` (stereo not drawn) [Compound 1], the IC50 was found to be 21 nM.
Still for that read-out and setting: under `COc1cccc(C(CCO)NC(=O)c2cccc(-c3ccc4[nH]ncc4c3)c2)c1` (stereo not drawn) [Compound 2] stands under 1 nM; under `COc1cccc(C(CCO)NC(=O)c2cncc(-c3ccc4[nH]ncc4c3)c2)c1` (stereo not drawn) [Compound 3], 11 nM; under `COc1cccc(C(CCO)NC(=O)c2cc(-c3ccc4[nH]ncc4c3)ccn2)c1` (stereo not drawn) [Compound 4], 6 nM.
Same read-out and setting: under `COc1cccc(C(CO)NC(=O)c2cccc(-c3ccc4[nH]ncc4c3)c2)c1` (stereo not drawn) [Compound 5] stands 6 nM; under `O=C(NC(CCO)c1cccc(F)c1)c1cccc(-c2ccc3[nH]ncc3c2)c1` (stereo not drawn) [Compound 6], 7 nM; under `COc1cccc(C(CCN)NC(=O)c2cccc(-c3ccc4[nH]ncc4c3)c2)c1` (stereo not drawn) [Compound 7], 4 nM.
On the same count and under the same terms, the value for `COc1cccc(C(CCN(C)C)NC(=O)c2cccc(-c3ccc4[nH]ncc4c3)c2)c1` (stereo not drawn) [Compound 8] was 10 nM; that for `COc1cccc(C(CN)NC(=O)c2cccc(-c3ccc4[nH]ncc4c3)c2)c1` (stereo not drawn) [Compound 9] was 4 nM; that for `COc1cccc(C(CN(C)C)NC(=O)c2cccc(-c3ccc4[nH]ncc4c3)c2)c1` (stereo not drawn) [Compound 10] was 6 nM.
For the compound `COc1cccc(C(CO)NC(=O)c2ccc(F)c(-c3ccc4[nH]ncc4c3)c2)c1` (stereo not drawn) [Compound 11], the IC50 was found to be 5 nM.
The compound `COc1cccc(C(CO)NC(=O)c2cc(F)cc(-c3ccc4[nH]ncc4c3)c2)c1` (stereo not drawn) [Compound 12] registered an IC50 of 12 nM.
On the same count and under the same terms, the value for `O=C(NC(CCO)c1cccc(Cl)c1)c1cccc(-c2ccc3[nH]ncc3c2)c1` (stereo not drawn) [Compound 13] was 16 nM.
On the same count and under the same terms, the value for `COc1cccc(C(CN2CCCC2)NC(=O)c2cccc(-c3ccc4[nH]ncc4c3)c2)c1` (stereo not drawn) [Compound 14] was 8 nM.
With `COc1cccc(C(CO)NC(=O)c2cc(-c3ccc4[nH]ncc4c3)ccc2F)c1` (stereo not drawn) [Compound 15], the IC50 is 12 nM.
Still for that read-out and setting: the value for `O=C(NC(CO)c1cc(F)ccc1F)c1cccc(-c2ccc3[nH]ncc3c2)c1` (stereo not drawn) [Compound 16] was 26 nM; that for `O=C(NC(CO)c1cccc(F)c1F)c1cccc(-c2ccc3[nH]ncc3c2)c1` (stereo not drawn) [Compound 19] was 35 nM.
On the same count and under the same terms, under `O=C(NC(CCO)c1ccccc1F)c1cccc(-c2ccc3[nH]ncc3c2)c1` (stereo not drawn) [Compound 20] stands 35 nM; under `O=C(NC(CO)c1cccc(F)c1)c1cccc(-c2ccc3[nH]ncc3c2)c1` (stereo not drawn) [Compound 22], 6 nM; under `NCC(NC(=O)c1cccc(-c2ccc3[nH]ncc3c2)c1)c1cccc(F)c1` (stereo not drawn) [Compound 23], 7 nM.
Still for that read-out and setting: the value for `O=C(NC(CN1CCCC1)c1cccc(F)c1)c1cccc(-c2ccc3[nH]ncc3c2)c1` (stereo not drawn) [Compound 24] was 14 nM.
The compound `COc1cccc(C(CO)NC(=O)c2cccc(-c3ccc4[nH]nc(N)c4c3)c2)c1` (stereo not drawn) [Compound 27] had an IC50 of 30 nM. Against the preceding compound, the IC50 is about 2.1-fold higher.
The same measure, in the same setting: the value for `COc1cccc(C(CN)NC(=O)c2cccc(-c3ccc4[nH]nc(F)c4c3)c2)c1` (stereo not drawn) [Compound 28] was 13 nM.
In turn, `COc1cccc(C(CN)NC(=O)c2cccc(-c3ccc4[nH]nc(N)c4c3)c2)c1` (stereo not drawn) [Compound 29] came in with a half-maximal inhibitory concentration (IC50) of 7 nM. Against the preceding compound, the IC50 is about 1.9-fold lower.
`COc1cccc(C(CN)NC(=O)c2cccc(-c3ccc4[nH]nc(C)c4c3)c2)c1` (stereo not drawn) [Compound 30] registered an IC50 of 3 nM.
Same read-out and setting: the value for `COCCC(NC(=O)c1cccc(-c2ccc3[nH]ncc3c2)c1)c1cccc(OC)c1` (stereo not drawn) [Compound 31] was 20 nM; that for `COc1cccc(C(CN2CCNCC2)NC(=O)c2cccc(-c3ccc4[nH]ncc4c3)c2)c1` (stereo not drawn) [Compound 32] was 23 nM.

Values taken from US11345678B2, “Benzopyrazole compound used as RHO kinase inhibitor” (MEDSHINE DISCOVERY INC., priority 2018, dated 2022).
